Measurements published in article PMC12377202, “Design, synthesis, and cytotoxic evaluation of quinazoline-based derivatives as VEGER-2 inhibitors: comparative study against EGFR kinase activity, induction of apoptosis, and molecular docking study” (RSC Advances, 2025).

Tests used:
Type in all cases: cell-based, human
HepG-2 = assay: MTT anti-proliferative assay, HepG-2; details: Homo sapiens, HepG2; for viability at 0.195 µg/mL / cytotoxicity at 0.195 µg/mL: HepG-2, 0.195 ug/ml; for cytotoxicity at 0.195 µg/mL / cytotoxicity at 0.391 µg/mL / cytotoxicity at 0.781 µg/mL / cytotoxicity at 1.563 µg/mL / cytotoxicity at 3.125 µg/mL / cytotoxicity at 6.25 µg/mL / cytotoxicity at 12.5 µg/mL / cytotoxicity at 25 µg/mL: read-out: Toxicity %; for viability at 0.391 µg/mL / cytotoxicity at 0.391 µg/mL: HepG-2, 0.391 ug/ml; for viability at 0.781 µg/mL / cytotoxicity at 0.781 µg/mL: HepG-2, 0.781 ug/ml; for viability at 1.563 µg/mL / cytotoxicity at 1.563 µg/mL: HepG-2, 1.563 ug/ml; for viability at 3.125 µg/mL / cytotoxicity at 3.125 µg/mL: HepG-2, 3.125 ug/ml; for viability at 6.25 µg/mL / cytotoxicity at 6.25 µg/mL: HepG-2, 6.25 ug/ml; for viability at 12.5 µg/mL / cytotoxicity at 12.5 µg/mL: HepG-2, 12.5 ug/ml; for viability at 25 µg/mL / cytotoxicity at 25 µg/mL: HepG-2, 25 ug/ml; for IC50: MTT, HepG-2, read-out: Cytotoxicity against cancer cells IC50 HepG-2
K-562 = assay: MTT anti-proliferative assay, K-562; details: Homo sapiens, K562; for viability at 0.195 µmol / cytotoxicity at 0.195 µmol: K-562, 0.195 umol; for cytotoxicity at 0.195 µmol / cytotoxicity at 0.391 µmol / cytotoxicity at 0.781 µmol / cytotoxicity at 1.563 µmol / cytotoxicity at 3.125 µmol / cytotoxicity at 6.25 µmol / cytotoxicity at 12.5 µmol / cytotoxicity at 25 µmol: read-out: Toxicity %; for viability at 0.391 µmol / cytotoxicity at 0.391 µmol: K-562, 0.391 umol; for viability at 0.781 µmol / cytotoxicity at 0.781 µmol: K-562, 0.781 umol; for viability at 1.563 µmol / cytotoxicity at 1.563 µmol: K-562, 1.563 umol; for viability at 3.125 µmol / cytotoxicity at 3.125 µmol: K-562, 3.125 umol; for viability at 6.25 µmol / cytotoxicity at 6.25 µmol: K-562, 6.25 umol; for viability at 12.5 µmol / cytotoxicity at 12.5 µmol: K-562, 12.5 umol; for viability at 25 µmol / cytotoxicity at 25 µmol: K-562, 25 umol; for IC50: MTT, K-562, read-out: Cytotoxicity against cancer cells IC50 K-562
caspase-3 = assay: Caspase-3 expression level in HepG-2 cells; details: for Caspase-3 ± SE: HepG-2, at IC50 concentrations, control 0.460; for caspase-3 expression level, fold increase: HepG-2, vs control cells
Protocol: (§1) All synthesized compounds were tested at their cytotoxic concentrations in HepG-2 cells for analysis of gene expression levels of apoptotic markers caspase-3, caspase-9, TNF-α, and IL-6 proteins, and only two active compounds were tested for BAX and Bcl-2 proteins.
(§2) through Flow cytometric analysis.
(§3) Pellets were collected again and incubated with
(§4) Total RNA from vehicle-treated
(§5) (Thermo Scientific, USA).
(§6) All experiments were performed in […]

IL-6R = IL-6R level in HepG-2 cells; details: control 44.10; for IL-6R ± SE: HepG-2, at IC50 concentrations; for IL-6 ±SE: raw data, HepG2
Protocol: as §1, §2, §3, §4, §5, §6

TNF-alpha = TNF-alpha level in HepG-2 cells; details: control 43.48
Protocol: as §1, §2, §3, §4, §5, §6

caspase-9 = assay: Caspase-9 expression level in HepG-2 cells; details: for Caspase-9 ± SE: HepG-2, at IC50 concentrations, control 11.01; for caspase-9 expression level, fold increase: HepG-2, vs control cells
Protocol: as §1, §2, §3, §4, §5, §6

MCF-7 = assay: MTT anti-proliferative assay, MCF-7; details: Homo sapiens, MCF7; for viability at 0.195 µmol / cytotoxicity at 0.195 µmol: MCF-7, 0.195 umol; for cytotoxicity at 0.195 µmol / cytotoxicity at 0.391 µmol / cytotoxicity at 0.781 µmol / cytotoxicity at 1.563 µmol / cytotoxicity at 3.125 µmol / cytotoxicity at 6.25 µmol / cytotoxicity at 12.5 µmol / cytotoxicity at 25 µmol: read-out: Toxicity %; for viability at 0.391 µmol / cytotoxicity at 0.391 µmol: MCF-7, 0.391 umol; for viability at 0.781 µmol / cytotoxicity at 0.781 µmol: MCF-7, 0.781 umol; for viability at 1.563 µmol / cytotoxicity at 1.563 µmol: MCF-7, 1.563 umol; for viability at 3.125 µmol / cytotoxicity at 3.125 µmol: MCF-7, 3.125 umol; for viability at 6.25 µmol / cytotoxicity at 6.25 µmol: MCF-7, 6.25 umol; for viability at 12.5 µmol / cytotoxicity at 12.5 µmol: MCF-7, 12.5 umol; for viability at 25 µmol / cytotoxicity at 25 µmol: MCF-7, 25 umol; for IC50: MTT, MCF-7, read-out: Cytotoxicity against cancer cells IC50 MCF-7

SMILES: O=C(Cn1cnc2cc([N+](=O)[O-])ccc2c1=O)Nc1ccc(Cl)cc1 [9c, N-(4-Chlorophenyl)-2-(7-nitro-4-oxoquinazolin-3(4H)-yl)acetamide]
- viability at 0.195 µg/mL (HepG-2): 83.4%
- cytotoxicity at 0.195 µg/mL (HepG-2): 16.6%
- viability at 0.391 µg/mL (HepG-2): 70.3%
- cytotoxicity at 0.391 µg/mL (HepG-2): 29.7%
- viability at 0.781 µg/mL (HepG-2): 56.1%
- cytotoxicity at 0.781 µg/mL (HepG-2): 43.9%
- viability at 1.563 µg/mL (HepG-2): 34.4%
- cytotoxicity at 1.563 µg/mL (HepG-2): 65.6%
- viability at 3.125 µg/mL (HepG-2): 16.8%
- cytotoxicity at 3.125 µg/mL (HepG-2): 83.2%
- viability at 6.25 µg/mL (HepG-2): 11.7%
- cytotoxicity at 6.25 µg/mL (HepG-2): 88.3%
- viability at 12.5 µg/mL (HepG-2): 7.36%
- cytotoxicity at 12.5 µg/mL (HepG-2): 92.6%
- viability at 25 µg/mL (HepG-2): 6.23%
- cytotoxicity at 25 µg/mL (HepG-2): 93.8%
- IC50 (HepG-2): 1000 ± 4.9 nM
- viability at 0.195 µmol (K-562): 80.6%
- cytotoxicity at 0.195 µmol (K-562): 19.4%
- viability at 0.391 µmol (K-562): 60%
- cytotoxicity at 0.391 µmol (K-562): 40%
- viability at 0.781 µmol (K-562): 33.6%
- cytotoxicity at 0.781 µmol (K-562): 66.4%
- viability at 1.563 µmol (K-562): 22.3%
- cytotoxicity at 1.563 µmol (K-562): 77.7%
- viability at 3.125 µmol (K-562): 11%
- cytotoxicity at 3.125 µmol (K-562): 89%
- viability at 6.25 µmol (K-562): 8.29%
- cytotoxicity at 6.25 µmol (K-562): 91.7%
- viability at 12.5 µmol (K-562): 7.43%
- cytotoxicity at 12.5 µmol (K-562): 92.6%
- viability at 25 µmol (K-562): 7.02%
- cytotoxicity at 25 µmol (K-562): 93%
- IC50 (K-562): 538.8 ± 1.7 nM
- Caspase-3 ± SE (caspase-3): 1.77 ± 0.08 ng/mL
- Caspase-3 ± SE (caspase-3; listed as N2): 1.77 ng/mL
- caspase-3 expression level, fold increase (caspase-3): 3.85 fold
- IL-6R ± SE (IL-6R): 11.87 ± 0.80 ng/L
- IL-6 ±SE (IL-6R): 24.59 ng/L
- TNF-alpha ±SE (TNF-alpha; HepG-2, at IC50 concentrations): 16.86 ± 2.39 ng/L
- TNF-alpha ±SE (TNF-alpha; raw data, HepG2): 23.47 ng/L
- Caspase-9 ± SE (caspase-9): 70.03 ± 0.47 ng/L
- Caspase-9 ± SE (caspase-9; listed as N2): 70.03 ng/L
- caspase-9 expression level, fold increase (caspase-9): 6.37 fold
- viability at 0.195 µmol (MCF-7): 91.3%
- cytotoxicity at 0.195 µmol (MCF-7): 8.66%
- viability at 0.391 µmol (MCF-7): 68.1%
- cytotoxicity at 0.391 µmol (MCF-7): 31.9%
- viability at 0.781 µmol (MCF-7): 43%
- cytotoxicity at 0.781 µmol (MCF-7): 57%
- viability at 1.563 µmol (MCF-7): 27.7%
- cytotoxicity at 1.563 µmol (MCF-7): 72.3%
- viability at 3.125 µmol (MCF-7): 15.2%
- cytotoxicity at 3.125 µmol (MCF-7): 84.8%
- viability at 6.25 µmol (MCF-7): 11.2%
- cytotoxicity at 6.25 µmol (MCF-7): 88.8%
- viability at 12.5 µmol (MCF-7): 8.44%
- cytotoxicity at 12.5 µmol (MCF-7): 91.6%
- viability at 25 µmol (MCF-7): 6.82%
- cytotoxicity at 25 µmol (MCF-7): 93.2%
- IC50 (MCF-7): 672.4 ± 4.9 nM

SMILES: O=C(Cn1cnc2cc([N+](=O)[O-])ccc2c1=O)Nc1ccc(F)c(Cl)c1 [9e, N-(3-Chloro-4-fluorophenyl)-2-(7-nitro-4-oxoquinazolin-3(4H)-yl)acetamide]
- viability at 0.195 µg/mL (HepG-2): 87.5%
- cytotoxicity at 0.195 µg/mL (HepG-2): 12.5%
- viability at 0.391 µg/mL (HepG-2): 63.9%
- cytotoxicity at 0.391 µg/mL (HepG-2): 36.1%
- viability at 0.781 µg/mL (HepG-2): 55.2%
- cytotoxicity at 0.781 µg/mL (HepG-2): 44.8%
- viability at 1.563 µg/mL (HepG-2): 49.6%
- cytotoxicity at 1.563 µg/mL (HepG-2): 50.4%
- viability at 3.125 µg/mL (HepG-2): 25.9%
- cytotoxicity at 3.125 µg/mL (HepG-2): 74.1%
- viability at 6.25 µg/mL (HepG-2): 16.3%
- cytotoxicity at 6.25 µg/mL (HepG-2): 83.7%
- viability at 12.5 µg/mL (HepG-2): 8.39%
- cytotoxicity at 12.5 µg/mL (HepG-2): 91.6%
- viability at 25 µg/mL (HepG-2): 6.85%
- cytotoxicity at 25 µg/mL (HepG-2): 93.2%
- IC50 (HepG-2): 1510 ± 2 nM
- viability at 0.195 µmol (K-562): 60.6%
- cytotoxicity at 0.195 µmol (K-562): 39.4%
- viability at 0.391 µmol (K-562): 47%
- cytotoxicity at 0.391 µmol (K-562): 53%
- viability at 0.781 µmol (K-562): 26.6%
- cytotoxicity at 0.781 µmol (K-562): 73.4%
- viability at 1.563 µmol (K-562): 19%
- cytotoxicity at 1.563 µmol (K-562): 81%
- viability at 3.125 µmol (K-562): 13.7%
- cytotoxicity at 3.125 µmol (K-562): 86.3%
- viability at 6.25 µmol (K-562): 10.8%
- cytotoxicity at 6.25 µmol (K-562): 89.2%
- viability at 12.5 µmol (K-562): 8.13%
- cytotoxicity at 12.5 µmol (K-562): 91.9%
- viability at 25 µmol (K-562): 6.53%
- cytotoxicity at 25 µmol (K-562): 93.5%
- IC50 (K-562): 346.9 ± 2.9 nM
- Caspase-3 ± SE (caspase-3): 0.77 ± 0.069 ng/mL
- Caspase-3 ± SE (caspase-3; listed as N4): 0.77 ng/mL
- caspase-3 expression level, fold increase (caspase-3): 1.6 fold
- IL-6R ± SE (IL-6R): 25.25 ± 0.16 ng/L
- IL-6 ±SE (IL-6R): 11.93 ng/L
- TNF-alpha ±SE (TNF-alpha; HepG-2, at IC50 concentrations): 34.27 ± 1.94 ng/L
- TNF-alpha ±SE (TNF-alpha; raw data, HepG2): 32.07 ng/L
- Caspase-9 ± SE (caspase-9): 25.20 ± 1.27 ng/L
- Caspase-9 ± SE (caspase-9; listed as N4): 25.20 ng/L
- caspase-9 expression level, fold increase (caspase-9): 2.29 fold
- viability at 0.195 µmol (MCF-7): 54.8%
- cytotoxicity at 0.195 µmol (MCF-7): 45.2%
- viability at 0.391 µmol (MCF-7): 29.1%
- cytotoxicity at 0.391 µmol (MCF-7): 70.9%
- viability at 0.781 µmol (MCF-7): 20.9%
- cytotoxicity at 0.781 µmol (MCF-7): 79.1%
- viability at 1.563 µmol (MCF-7): 13.7%
- cytotoxicity at 1.563 µmol (MCF-7): 86.3%
- viability at 3.125 µmol (MCF-7): 9.89%
- cytotoxicity at 3.125 µmol (MCF-7): 90.1%
- viability at 6.25 µmol (MCF-7): 9.23%
- cytotoxicity at 6.25 µmol (MCF-7): 90.8%
- viability at 12.5 µmol (MCF-7): 8.22%
- cytotoxicity at 12.5 µmol (MCF-7): 91.8%
- viability at 25 µmol (MCF-7): 6.51%
- cytotoxicity at 25 µmol (MCF-7): 93.5%
- IC50 (MCF-7): 231.4 ± 2.3 nM
